Reference: patent US20230139171A1 (SITA Information Networking Computing UK Limited, priority 2019, published 2023)

How the values were obtained:
Format in all cases: cell-based
human TLR8 = target: T1, human TLR8 (Homo sapiens, UniProt Q9NR97); assay: TLR8 inhibition reporter assay (HEK-Blue cells, SEAP reporter, R848 stimulation); conditions: HEK-Blue cells overexpressing human TLR8, SEAP reporter, R848 15.9 μM; read-out: TLR8 IC50
T1 construct: host or cells: HEK-Blue cells
T1 sequence (Q9NR97 27-1041): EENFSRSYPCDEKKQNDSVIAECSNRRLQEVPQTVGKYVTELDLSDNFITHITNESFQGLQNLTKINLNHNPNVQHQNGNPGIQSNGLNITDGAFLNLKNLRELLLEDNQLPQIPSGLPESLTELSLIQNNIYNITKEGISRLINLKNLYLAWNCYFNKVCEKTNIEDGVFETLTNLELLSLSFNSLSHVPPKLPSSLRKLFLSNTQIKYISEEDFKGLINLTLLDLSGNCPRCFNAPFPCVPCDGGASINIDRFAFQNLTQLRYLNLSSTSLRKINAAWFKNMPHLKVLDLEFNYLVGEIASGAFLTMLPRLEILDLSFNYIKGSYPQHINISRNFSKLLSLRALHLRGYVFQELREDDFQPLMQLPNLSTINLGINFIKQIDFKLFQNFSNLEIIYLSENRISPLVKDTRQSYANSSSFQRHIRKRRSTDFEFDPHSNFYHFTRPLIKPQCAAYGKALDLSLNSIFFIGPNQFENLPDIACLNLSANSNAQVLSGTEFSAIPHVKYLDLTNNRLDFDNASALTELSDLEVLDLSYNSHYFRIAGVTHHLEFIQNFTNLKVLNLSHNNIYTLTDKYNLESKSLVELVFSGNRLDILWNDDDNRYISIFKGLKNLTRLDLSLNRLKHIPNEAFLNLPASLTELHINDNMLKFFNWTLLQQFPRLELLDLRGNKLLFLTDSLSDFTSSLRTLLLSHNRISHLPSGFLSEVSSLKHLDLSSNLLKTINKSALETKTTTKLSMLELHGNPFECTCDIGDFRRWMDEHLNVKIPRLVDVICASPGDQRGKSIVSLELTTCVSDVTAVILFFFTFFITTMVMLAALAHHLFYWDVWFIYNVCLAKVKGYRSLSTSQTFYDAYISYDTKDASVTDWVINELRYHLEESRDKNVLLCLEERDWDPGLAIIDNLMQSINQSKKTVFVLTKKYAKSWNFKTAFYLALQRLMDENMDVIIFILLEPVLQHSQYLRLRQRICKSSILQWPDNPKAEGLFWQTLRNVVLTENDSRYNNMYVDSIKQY
Summary of the method: (§1)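 Dose–response from 0.05 nM to 50 μM was run in HEK-Blue human TLR7, TLR8 and TLR9 reporter cells. After 30 min at room temperature with compound, ligand was added (TLR7 gardiquimod 7.5 μM; TLR8 R848 15.9 μM; TLR9 ODN2006 5 nM) and SEAP measured next day, at 22 h.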

human TLR9 = target: T2, human TLR9 (Homo sapiens, UniProt Q9NR96); assay: TLR9 inhibition reporter assay (HEK-Blue cells, SEAP reporter, ODN2006 stimulation); conditions: HEK-Blue cells overexpressing human TLR9, SEAP reporter, ODN2006 5 nM
T2 construct: host or cells: HEK-Blue cells
T2 sequence (Q9NR96 26-1032): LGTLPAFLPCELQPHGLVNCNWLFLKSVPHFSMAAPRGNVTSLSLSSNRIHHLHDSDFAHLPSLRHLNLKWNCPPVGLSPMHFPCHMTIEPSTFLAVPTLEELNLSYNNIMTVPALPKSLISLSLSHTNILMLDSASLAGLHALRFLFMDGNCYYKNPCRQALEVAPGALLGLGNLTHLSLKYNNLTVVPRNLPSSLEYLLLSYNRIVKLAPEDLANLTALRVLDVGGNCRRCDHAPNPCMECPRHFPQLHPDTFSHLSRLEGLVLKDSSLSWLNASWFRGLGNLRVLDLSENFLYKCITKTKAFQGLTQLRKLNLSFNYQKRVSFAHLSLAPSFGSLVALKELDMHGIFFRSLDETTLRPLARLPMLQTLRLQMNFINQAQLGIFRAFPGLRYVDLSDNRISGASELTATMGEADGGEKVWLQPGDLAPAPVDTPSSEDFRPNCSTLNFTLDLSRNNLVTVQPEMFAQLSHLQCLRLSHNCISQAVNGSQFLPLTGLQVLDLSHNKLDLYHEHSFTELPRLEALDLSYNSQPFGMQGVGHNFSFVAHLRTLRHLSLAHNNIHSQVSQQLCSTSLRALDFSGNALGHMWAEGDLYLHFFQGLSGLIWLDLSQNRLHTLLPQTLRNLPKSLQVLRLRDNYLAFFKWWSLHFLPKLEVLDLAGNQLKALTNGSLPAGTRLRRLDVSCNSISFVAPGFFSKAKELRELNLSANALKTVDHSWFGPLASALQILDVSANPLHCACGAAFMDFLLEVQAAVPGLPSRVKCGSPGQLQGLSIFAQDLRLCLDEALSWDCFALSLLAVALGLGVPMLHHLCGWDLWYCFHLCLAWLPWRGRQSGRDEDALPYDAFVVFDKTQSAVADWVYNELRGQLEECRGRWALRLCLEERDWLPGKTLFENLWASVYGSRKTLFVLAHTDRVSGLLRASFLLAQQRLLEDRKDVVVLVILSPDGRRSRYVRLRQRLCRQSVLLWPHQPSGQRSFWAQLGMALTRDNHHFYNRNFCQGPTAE
Summary of the method: as §1

human TLR7 = target: T3, human TLR7 (Homo sapiens, UniProt Q9NYK1); assay: TLR7 inhibition reporter assay (HEK-Blue cells, SEAP reporter, gardiquimod stimulation); conditions: HEK-Blue cells overexpressing human TLR7, SEAP reporter, gardiquimod 7.5 μM; read-out: TLR7 IC50
T3 construct: host or cells: HEK-Blue cells
T3 sequence (Q9NYK1 27-1049): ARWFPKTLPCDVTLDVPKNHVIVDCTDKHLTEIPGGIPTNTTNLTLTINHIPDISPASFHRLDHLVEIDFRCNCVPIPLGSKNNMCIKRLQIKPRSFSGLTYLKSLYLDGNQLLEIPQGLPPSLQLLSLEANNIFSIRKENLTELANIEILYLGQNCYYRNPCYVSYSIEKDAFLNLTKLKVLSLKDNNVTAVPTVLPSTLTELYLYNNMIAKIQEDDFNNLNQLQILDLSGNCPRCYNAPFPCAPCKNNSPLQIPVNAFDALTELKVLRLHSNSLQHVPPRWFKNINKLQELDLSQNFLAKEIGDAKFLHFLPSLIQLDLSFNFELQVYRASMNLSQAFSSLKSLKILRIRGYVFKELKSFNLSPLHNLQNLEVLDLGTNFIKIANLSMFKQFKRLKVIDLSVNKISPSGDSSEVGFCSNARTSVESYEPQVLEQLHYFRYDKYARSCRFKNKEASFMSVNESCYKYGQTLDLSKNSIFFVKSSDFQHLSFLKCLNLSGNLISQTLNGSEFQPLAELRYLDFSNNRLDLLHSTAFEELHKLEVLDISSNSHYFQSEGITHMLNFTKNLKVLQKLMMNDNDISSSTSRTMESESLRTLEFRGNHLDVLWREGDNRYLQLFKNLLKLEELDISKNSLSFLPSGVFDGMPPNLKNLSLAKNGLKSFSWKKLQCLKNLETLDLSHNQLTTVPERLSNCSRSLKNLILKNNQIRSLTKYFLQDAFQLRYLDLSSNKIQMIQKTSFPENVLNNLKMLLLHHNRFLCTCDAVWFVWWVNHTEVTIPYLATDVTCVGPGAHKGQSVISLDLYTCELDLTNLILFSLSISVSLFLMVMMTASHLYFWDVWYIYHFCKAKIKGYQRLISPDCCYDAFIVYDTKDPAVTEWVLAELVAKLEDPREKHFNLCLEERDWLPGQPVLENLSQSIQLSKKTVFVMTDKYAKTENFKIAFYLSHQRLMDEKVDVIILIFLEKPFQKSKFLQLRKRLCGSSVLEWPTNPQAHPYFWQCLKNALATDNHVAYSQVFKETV
Summary of the method: as §1

Structure (SMILES) | IC50 (human TLR8) | IC50 (human TLR9) | IC50 (human TLR7)
Cc1c(-c2[nH]c3sc(C4CCC(N(C)CC(C)C)CC4)nc3c2C(C)C)cn2ncnc2c1C (single isomer, unassigned) [Example 228, 4-(5-(7,8-dimethyl-[1,2,4]triazolo[1,5-a]pyridin-6-yl)-6-isopropyl-4H-pyrrolo[3,2-d]thiazol-2-yl)-N-isobutyl-N-methylcyclohexan-1-amine] | 1.46 nM | 8.86 µM | 2.18 nM
CCN(C)C1CCC(c2nc3c(C(C)C)c(-c4cn(C)c5ncccc45)[nH]c3s2)CC1 (single isomer, unassigned) [Example 175, N-ethyl-4-(6-isopropyl-5-(1-methyl-1H-pyrrolo[2,3-b]pyridin-3-yl)-4H-pyrrolo[3,2-d]thiazol-2-yl)-N-methylcyclohexan-1-amine] | 6.23 nM | 6.25 µM | 3.76 nM
Cc1c(-c2[nH]c3sc(C4CCC(N5CC6(COC6)C5)CC4)nc3c2C(C)C)cn2ncnc2c1C (single isomer, unassigned) [Example 193, 6-(4-(5-(7,8-dimethyl-[1,2,4]triazolo[1,5-a]pyridin-6-yl)-6-isopropyl-4H-pyrrolo[3,2-d]thiazol-2-yl)cyclohexyl)-2-oxa-6-azaspiro[3.3]heptane] | 4.45 nM | 7.63 µM | 1.97 nM
Cc1c(-c2[nH]c3sc(C4CCC(NC5CCOCC5)CC4)nc3c2C(C)C)cn(C)c(=O)c1C (single isomer, unassigned) [Example 249, 5-(6-isopropyl-2-(4-((tetrahydro-2H-pyran-4-yl)amino)cyclohexyl)-4H-pyrrolo[3,2-d]thiazol-5-yl)-1,3,4-trimethylpyridin-2(1H)-one] | 1.19 nM | 19.8 µM | 6.34 nM
Cc1c(-c2[nH]c3sc(C4CCC(N5CC6(COC6)C5)CC4)nc3c2C(C)C)cn(C)c(=O)c1C (single isomer, unassigned) [Example 245, 5-(2-(4-(2-oxa-6-azaspiro[3.3]heptan-6-yl)cyclohexyl)-6-isopropyl-4H-pyrrolo[3,2-d]thiazol-5-yl)-1,3,4-trimethylpyridin-2(1H)-one] | 0.65 nM | 22.9 µM | 2.6 nM
Cc1c(-c2[nH]c3sc(C4CCC(NCC(C)(C)O)CC4)nc3c2C(C)C)cn(C)c(=O)c1C (single isomer, unassigned) [Example 251, 5-(2-(4-((2-hydroxy-2-methylpropyl)amino)cyclohexyl)-6-isopropyl-4H-pyrrolo[3,2-d]thiazol-5-yl)-1,3,4-trimethylpyridin-2(1H)-one] | 2.68 nM | 45.3 µM | 10.6 nM
COc1cc(-c2[nH]c3sc(C4CCC(NC(C)C)CC4)nc3c2C(C)C)cn2ncnc12 (single isomer, unassigned) [Example 79, N-isopropyl-4-(6-isopropyl-5-(8-methoxy-[1,2,4]triazolo[1,5-a]pyridin-6-yl)-4H-pyrrolo[3,2-d]thiazol-2-yl)cyclohexan-1-amine] | 9.23 nM | 4.12 µM | 2.29 nM
Cc1c(-c2[nH]c3sc(C4CCC(N5CC6(COC6)C5)CC4)nc3c2C(C)C)cn2ncnc2c1C (single isomer, unassigned) [Example 192, 6-(4-(5-(7,8-dimethyl-[1,2,4]triazolo[1,5-a]pyridin-6-yl)-6-isopropyl-4H-pyrrolo[3,2-d]thiazol-2-yl)cyclohexyl)-2-oxa-6-azaspiro[3.3]heptane] | 0.33 nM | 16.2 µM | 1.67 nM

The next lines start with the values.

IC50 (human TLR8) | IC50 (human TLR9) | IC50 (human TLR7) | Structure (SMILES)
0.73 nM | 4.96 µM | 1.26 nM | Cc1c(-c2[nH]c3sc(N4CCN(C(=O)CN(C)C)CC4)nc3c2C(C)C)cn2ncnc2c1C [Example 280, 1-(4-(5-(7,8-dimethyl-[1,2,4]triazolo[1,5-a]pyridin-6-yl)-6-isopropyl-4H-pyrrolo[3,2-d]thiazol-2-yl)piperazin-1-yl)-2-(dimethylamino)ethan-1-one]
3.86 nM | > 50 µM | 22.4 nM | Cc1c(-c2[nH]c3sc(N4CCN(C5CCC5)C[C@H]4C)nc3c2C(C)C)cn2ncnc2c1C [Example 323]
0.97 nM | 19.7 µM | 5.19 nM | Cc1c(-c2[nH]c3sc(N4CCN(CC5(C)COC5)CC4)nc3c2C(C)C)cn2ncnc2c1C [Example 289, 5-(7,8-dimethyl-[1,2,4]triazolo[1,5-a]pyridin-6-yl)-6-isopropyl-2-(4-((3-methyloxetan-3-yl)methyl)piperazin-1-yl)-4H-pyrrolo[3,2-d]thiazole]
43.9 nM | 11.5 µM | 25.2 nM | COc1cc(-c2[nH]c3sc(C(=O)NCCN4CCCC4)nc3c2C(C)C)cn2ncnc12 [Example 387, 6-isopropyl-5-(8-methoxy-[1,2,4]triazolo[1,5-a]pyridin-6-yl)-N-(2-(pyrrolidin-1-yl)ethyl)-4H-pyrrolo[3,2-d]thiazole-2-carboxamide]
